Test results as given in EP4667482A1, “SALT OF DIPEPTIDE COMPOUND, PREPARATION METHOD THEREFOR, AND USE THEREOF” (Zhejiang Huahai Pharmaceutical Co., Ltd., priority 2023, dated 2024).
Structures can show the parent of a compound that is named as a salt.

Assays:
Type in all cases: physicochemical
Solubility determination = details: water, result in words
[1] = Solid-state stability of Form III (mechanical milling; storage at 60 °C sealed)
[2] = Moisture adsorption / hygroscopicity (DVS)
[3] = Stability at room temperature (10 days)

Q: With `CCCCCCOC(=O)NC(=N)c1ccc(CNC(=O)[C@@H]2CCCN2C(=O)[C@@H](CC(C)C)NCC(=O)OCC)cc1` [dihydrochloride] as the molecule, how does the aqueous solubility (Solubility determination) read?
A: excellent aqueous solubility

Q: Which aqueous solubility (Solubility determination) does the source give for `CCCCCCOC(=O)NC(=N)c1ccc(CNC(=O)[C@@H]2CCCN2C(=O)[C@@H](CC(C)C)NCC(=O)OCC)cc1` here?
A: insoluble in water

Q: Which “crystalline form after storage” value ([1]; 60 °C/sealed condition for 7 days) does the source give for `CCCCCCOC(=O)NC(=N)c1ccc(CNC(=O)[C@@H]2CCCN2C(=O)[C@@H](CC(C)C)NCC(=O)OCC)cc1` [Form III] here?
A: converted to Form I

Q: And the purity ([1]; after storage at 60 °C/sealed condition for 7 days)?
A: 89.35%

Q: And the purity ([1]; before storage at 60 °C/sealed condition)?
A: 95.81%

Q: And the “crystalline form after mechanical milling” value ([1]; mechanical milling for 2 minutes)?
A: converted to Form I

Q: What about the “water absorption (DVS)” value ([2]; 80% RH) of the same molecule?
A: 28.8%

Q: And the “water absorption (DVS)” value ([2]; 90% humidity)?
A: 50.0%

Q: Which results are given for `CCCCCCOC(=O)NC(=N)c1ccc(CNC(=O)[C@@H]2CCCN2C(=O)[C@@H](CC(C)C)NCC(=O)OCC)cc1` [Form A of the monohydrochloride]?
A: Stability at room temperature (10 days) [3]: White powder, crystalline form remains unchanged (10 days); Moisture adsorption content (wt%) [2]: 0.5 wt%; Hygroscopicity ([2]; result in words): Slightly hygroscopic
